Values joined by “and” are separate entries in the source; they are usually repeats but may differ in a detail not shown here. Identical values can stand only once. Like-named read-outs stand apart in the source and are kept apart here.

One test concerns the target T1, SicA K27A (Salmonella typhimurium, UniProt P69066, K27A).
T1 construct: His6 (N, cleaved yes); made in house; host or cells: E. coli BL21(DE3), pET-28a (pET28a-sicAK27A)
The format is binding, S. Typhimurium.

The next test concerns the target T2, BicA (WP_009896148) (Burkholderia thailandensis, UniProt Q2T712).
T2 sequence (Q2T712 1-171): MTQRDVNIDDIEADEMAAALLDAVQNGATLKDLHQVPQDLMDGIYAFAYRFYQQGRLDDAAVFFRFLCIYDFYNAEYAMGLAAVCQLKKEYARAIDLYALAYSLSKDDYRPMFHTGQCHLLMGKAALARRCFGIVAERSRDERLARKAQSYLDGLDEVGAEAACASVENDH
In kind it is binding.

The target of another test is T3, SicA (Salmonella typhimurium, UniProt P69066).
T3 construct: His6 (N, cleaved yes); made in house; host or cells: E. coli BL21(DE3), pET-28a (pET28a-sicA)
T3 sequence (P69066 whole entry): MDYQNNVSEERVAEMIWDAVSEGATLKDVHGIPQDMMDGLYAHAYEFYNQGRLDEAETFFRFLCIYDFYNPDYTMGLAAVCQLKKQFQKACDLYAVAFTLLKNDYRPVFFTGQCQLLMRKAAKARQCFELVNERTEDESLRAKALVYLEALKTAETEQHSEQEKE
Put plainly: ITC: nucleotide (c-di-GMP, c-di-AMP, cGMP) binding to SicA. Further details: species or system S. Typhimurium. A general note: In ITC the heat of successive injections is recorded.

The subject of another test is SipC-His6 / SicA-HA. Put plainly: Co-IP of SipC-His6 with SicA-HA in presence of c-di-GMP. The note with it: dose-dependent.
Setting [1] is: individual experiments, source data Fig. 5a.

T1 sequence (P69066 whole entry K27A): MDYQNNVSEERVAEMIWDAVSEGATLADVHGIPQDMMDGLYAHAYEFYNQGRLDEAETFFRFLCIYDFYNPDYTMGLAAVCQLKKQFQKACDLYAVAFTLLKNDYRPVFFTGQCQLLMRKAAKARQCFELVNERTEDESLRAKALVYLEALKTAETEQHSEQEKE

As for `Nc1nc2c(ncn2C2OC3COP(=O)(O)OC4C(COP(=O)(O)OC3C2O)OC(n2cnc3c(=O)[nH]c(N)nc32)C4O)c(=O)[nH]1` (stereo not drawn) [c-di-GMP, Cyclic di-GMP], the “n, c-di-GMP binding to SicAK27A” value at SicA K27A (ITC binding stoichiometry n, individual replicates, Supplementary Figure 17a) is 1.03 and 0.93 and 0.96. Besides, the Kd at SicA K27A (binding to SicA K27A) is 41000 nM and 33000 nM and 39000 nM; on BicA (WP_009896148) it was 150 to 220 nM; at BicA (WP_009896148) (read-out: Kd, c-di-GMP binding to BicA), 190 nM and 200 nM and 240 nM; at SicA (c-di-GMP : SicA WT, mean ± s.d. of three independent experiments) it was 210 ± 90 nM; at SicA (setting [1]) it was 320 nM and 100 nM. For the same molecule, the “n, c-di-GMP binding to BicA” value on BicA (WP_009896148) is 1.12 and 1.17 and 1.14. Further, the “n (complex stoichiometry)” value on SicA (setting [1]) is 1.14 and 1.11 and 1.21. In addition, the “Effect on co-IP of SipC-His6 with SicA-HA (in words)” value with SipC-His6 / SicA-HA was “decreased”.

For orientation: Kd means the free concentration of one partner at which half of the binding sites on the other are occupied at equilibrium, for simple one-to-one binding.

Values taken from paper PMC9637222, “Autoinducer-2 and bile salts induce c-di-GMP synthesis to repress the T3SS via a T3SS chaperone” (Nature Communications, 2022).
